In ChEMBL document CHEMBL1201862, “PubChem BioAssay data set” (2004):
Activity calls are given as the source filed them.

Experiments:
Cytochrome P450 3A4 = Cytochrome P450 3A4 (Homo sapiens, UniProt P08684); conditions: Potency;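 further: confirmatory qHTS run detecting inhibitors and substrates of CYP3A4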
[1] = Luminescence Cell-Based Dose Confirmation HTS to Identify Activators of 5'UTR Stem-Loop Driven Alpha-Synuclein mRNA Translation in H4 Neuroglioblastoma Cells. [Related pubchem assays: 1829 (Project Summary), 1814 (Primary HTS)]; type: functional
H4 = test: Luminescence Cell-Based Dose Response HTS to Identify Activators of 5'UTR Stem-Loop Driven Prion Protein mRNA Translation in H4 Neuroglioblastoma Cells. [Related pubchem assays: 1829 (Project Summary), 1814 (Primary HTS)]; type: functional; conditions: Homo sapiens
[2] = Luminescence Cell-Based Dose Response HTS to Identify Activators of Luciferase Translation or Activity in H4 […] Cells. [Related pubchem assays: 1829 (Project Summary), 1814 (Primary HTS)]; type: functional
[3] = molecular target: T1, Sentrin-specific protease 7 (Homo sapiens, UniProt Q9BQF6); type: functional;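 further: Luminescence-based dose-response confirmation of ultra-high-throughput screening hits, measuring inhibition of SENP7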
T1 sequence (Q9BQF6 whole entry): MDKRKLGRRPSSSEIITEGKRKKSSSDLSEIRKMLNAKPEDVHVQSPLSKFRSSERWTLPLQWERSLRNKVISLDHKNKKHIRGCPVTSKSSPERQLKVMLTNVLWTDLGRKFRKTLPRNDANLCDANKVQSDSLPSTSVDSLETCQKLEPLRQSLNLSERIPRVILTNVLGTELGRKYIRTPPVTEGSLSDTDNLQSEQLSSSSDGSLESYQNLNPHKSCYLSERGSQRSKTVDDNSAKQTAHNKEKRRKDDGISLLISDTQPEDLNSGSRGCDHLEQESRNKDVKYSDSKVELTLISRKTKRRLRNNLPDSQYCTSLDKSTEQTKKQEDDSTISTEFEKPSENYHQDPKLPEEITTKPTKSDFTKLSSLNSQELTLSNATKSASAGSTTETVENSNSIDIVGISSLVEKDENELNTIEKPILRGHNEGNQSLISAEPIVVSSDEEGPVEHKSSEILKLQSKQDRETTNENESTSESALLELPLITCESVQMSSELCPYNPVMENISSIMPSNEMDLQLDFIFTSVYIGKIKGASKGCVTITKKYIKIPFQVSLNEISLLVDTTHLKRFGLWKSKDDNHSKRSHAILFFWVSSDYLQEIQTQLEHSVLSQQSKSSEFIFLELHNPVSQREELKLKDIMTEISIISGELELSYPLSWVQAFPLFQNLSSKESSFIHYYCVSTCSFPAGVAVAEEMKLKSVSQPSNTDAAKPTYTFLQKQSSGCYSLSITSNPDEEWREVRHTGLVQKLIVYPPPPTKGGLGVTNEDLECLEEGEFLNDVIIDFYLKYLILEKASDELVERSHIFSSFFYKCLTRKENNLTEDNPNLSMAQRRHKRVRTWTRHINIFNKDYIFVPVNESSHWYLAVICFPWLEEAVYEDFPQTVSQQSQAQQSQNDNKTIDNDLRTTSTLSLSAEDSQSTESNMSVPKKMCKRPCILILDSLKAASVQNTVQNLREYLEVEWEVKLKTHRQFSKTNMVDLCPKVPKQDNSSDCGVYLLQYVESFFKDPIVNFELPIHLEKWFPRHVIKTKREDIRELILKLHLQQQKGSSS

[4] = molecular target: T2, Sentrin-specific protease 8 (Homo sapiens, UniProt Q96LD8); type: functional;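 further: luminescence read-out of SENP8 inhibition, dose-response confirmation following an ultra-high-throughput screen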
T2 sequence (Q96LD8 whole entry): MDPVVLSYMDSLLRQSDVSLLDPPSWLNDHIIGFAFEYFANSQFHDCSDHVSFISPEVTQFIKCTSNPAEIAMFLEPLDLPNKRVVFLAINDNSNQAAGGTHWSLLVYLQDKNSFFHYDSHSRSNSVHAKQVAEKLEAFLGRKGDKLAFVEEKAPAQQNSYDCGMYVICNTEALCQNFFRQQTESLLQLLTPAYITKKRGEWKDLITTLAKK

[5] = molecular target: T3, Sentrin-specific protease 6 (Homo sapiens, UniProt Q9GZR1); type: functional;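 further: Luminescence-based dose-response confirmatory assay of SENP6 inhibition, following up an ultra-high-throughput screen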
T3 sequence (Q9GZR1 whole entry): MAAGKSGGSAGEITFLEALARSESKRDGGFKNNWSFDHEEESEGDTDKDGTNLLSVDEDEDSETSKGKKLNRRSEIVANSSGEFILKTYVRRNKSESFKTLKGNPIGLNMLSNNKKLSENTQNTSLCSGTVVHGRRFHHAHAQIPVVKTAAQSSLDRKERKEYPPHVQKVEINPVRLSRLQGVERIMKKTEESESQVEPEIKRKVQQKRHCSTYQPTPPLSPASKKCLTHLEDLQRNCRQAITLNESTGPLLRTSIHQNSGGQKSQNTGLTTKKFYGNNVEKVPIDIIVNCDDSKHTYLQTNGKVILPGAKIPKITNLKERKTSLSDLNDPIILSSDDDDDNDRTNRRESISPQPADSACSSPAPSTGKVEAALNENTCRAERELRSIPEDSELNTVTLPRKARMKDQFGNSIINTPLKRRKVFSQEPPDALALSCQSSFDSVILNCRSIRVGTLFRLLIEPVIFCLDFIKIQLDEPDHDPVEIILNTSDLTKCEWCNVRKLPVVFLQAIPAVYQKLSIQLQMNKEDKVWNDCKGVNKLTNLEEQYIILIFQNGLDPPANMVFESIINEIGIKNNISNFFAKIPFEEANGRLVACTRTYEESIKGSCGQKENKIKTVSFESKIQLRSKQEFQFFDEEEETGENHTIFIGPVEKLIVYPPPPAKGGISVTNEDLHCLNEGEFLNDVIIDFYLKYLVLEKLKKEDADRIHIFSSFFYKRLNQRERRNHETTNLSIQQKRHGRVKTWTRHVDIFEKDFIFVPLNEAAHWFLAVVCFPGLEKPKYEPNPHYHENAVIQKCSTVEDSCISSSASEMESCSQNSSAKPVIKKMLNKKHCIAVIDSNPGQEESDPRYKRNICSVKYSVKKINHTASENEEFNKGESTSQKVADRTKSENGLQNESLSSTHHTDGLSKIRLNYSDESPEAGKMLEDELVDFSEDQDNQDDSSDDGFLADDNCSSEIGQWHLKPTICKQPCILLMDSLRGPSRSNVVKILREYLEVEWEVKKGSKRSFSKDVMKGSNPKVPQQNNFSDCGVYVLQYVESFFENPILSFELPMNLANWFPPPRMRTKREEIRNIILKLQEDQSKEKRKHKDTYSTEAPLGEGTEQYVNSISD

Caspase-3 = molecular target: T4, Caspase-3 (Homo sapiens, UniProt P42574); type: functional;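 further: Dose-response selectivity test against caspase-3 for candidate inhibitors of sentrin-specific proteases (SENPs)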
T4 sequence (P42574 whole entry): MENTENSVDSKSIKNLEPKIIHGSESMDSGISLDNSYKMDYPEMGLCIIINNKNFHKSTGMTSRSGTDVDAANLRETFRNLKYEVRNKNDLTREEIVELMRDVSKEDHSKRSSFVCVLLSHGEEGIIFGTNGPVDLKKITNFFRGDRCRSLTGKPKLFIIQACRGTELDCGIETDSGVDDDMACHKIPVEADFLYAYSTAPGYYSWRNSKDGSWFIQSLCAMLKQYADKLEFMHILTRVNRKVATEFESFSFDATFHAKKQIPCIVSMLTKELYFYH

Protein skinhead-1 = molecular target: T5, Protein skinhead-1 (Caenorhabditis elegans, UniProt P34707); type: functional
T5 sequence (P34707 whole entry): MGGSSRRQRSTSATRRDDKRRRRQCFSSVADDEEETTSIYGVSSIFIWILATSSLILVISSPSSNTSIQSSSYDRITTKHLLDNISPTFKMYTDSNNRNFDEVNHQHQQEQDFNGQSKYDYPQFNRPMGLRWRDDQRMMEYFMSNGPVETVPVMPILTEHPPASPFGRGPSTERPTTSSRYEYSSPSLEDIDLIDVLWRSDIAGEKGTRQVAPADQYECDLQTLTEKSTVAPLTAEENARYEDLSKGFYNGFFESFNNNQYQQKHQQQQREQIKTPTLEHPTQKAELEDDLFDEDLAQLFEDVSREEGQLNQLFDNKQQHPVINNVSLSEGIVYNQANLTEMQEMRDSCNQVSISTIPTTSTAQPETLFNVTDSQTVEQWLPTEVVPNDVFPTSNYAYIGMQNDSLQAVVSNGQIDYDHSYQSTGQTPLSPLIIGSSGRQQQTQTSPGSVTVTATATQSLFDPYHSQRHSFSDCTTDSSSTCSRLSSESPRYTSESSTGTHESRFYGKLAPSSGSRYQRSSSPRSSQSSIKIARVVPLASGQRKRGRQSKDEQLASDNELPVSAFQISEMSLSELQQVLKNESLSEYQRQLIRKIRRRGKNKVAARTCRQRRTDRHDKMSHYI

[6] = cytotoxicity in HEK-293T cells, dose response, cytotoxicity control for TCR NF-kB inhibitor project, luminescence, T-cell screen hits (AID 489026); type: functional, cell-based;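 further: cells exposed to compound about 14 hours before the viability readout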
[7] = molecular target: T6, Microphthalmia-associated transcription factor (Homo sapiens, UniProt O75030); test: TRPM1 promoter luciferase signal decrease, dose response, MITF inhibitor project, cell-based, SK-MEL-5, cherry-picked, set 3 (AID 493073); type: functional
T6 sequence (O75030 whole entry): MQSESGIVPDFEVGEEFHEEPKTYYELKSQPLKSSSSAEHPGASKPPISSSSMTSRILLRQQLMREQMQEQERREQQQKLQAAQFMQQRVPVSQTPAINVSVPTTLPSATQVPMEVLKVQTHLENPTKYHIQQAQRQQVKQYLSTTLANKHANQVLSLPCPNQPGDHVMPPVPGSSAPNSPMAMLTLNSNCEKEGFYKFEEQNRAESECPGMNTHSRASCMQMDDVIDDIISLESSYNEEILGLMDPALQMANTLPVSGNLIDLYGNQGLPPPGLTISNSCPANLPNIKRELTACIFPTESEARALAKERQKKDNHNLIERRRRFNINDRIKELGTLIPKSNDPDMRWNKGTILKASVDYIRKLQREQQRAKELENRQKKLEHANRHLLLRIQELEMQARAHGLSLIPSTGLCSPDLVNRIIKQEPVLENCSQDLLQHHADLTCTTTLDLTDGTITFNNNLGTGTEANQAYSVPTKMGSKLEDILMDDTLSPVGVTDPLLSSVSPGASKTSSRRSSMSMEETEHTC

cells [8] = type: functional, cell-based
cells [9] = type: functional, cell-based; remark: listed apart in the source
[10] = C. albicans growth with fluconazole, confirmation, fluorescence, retest (AID 2467); type: functional, cell-based
[11] = NIH-3T3 fibroblast cytotoxicity, dose response, cytotoxicity control, cell-based, fluorescence, Alamar Blue, secondary assay (AID 2327); type: functional;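 further: NIH-3T3 mouse fibroblasts cultured with fluconazole at 8 µg/mL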

Chain of Cytochrome P450 3A4 (P08684 whole entry): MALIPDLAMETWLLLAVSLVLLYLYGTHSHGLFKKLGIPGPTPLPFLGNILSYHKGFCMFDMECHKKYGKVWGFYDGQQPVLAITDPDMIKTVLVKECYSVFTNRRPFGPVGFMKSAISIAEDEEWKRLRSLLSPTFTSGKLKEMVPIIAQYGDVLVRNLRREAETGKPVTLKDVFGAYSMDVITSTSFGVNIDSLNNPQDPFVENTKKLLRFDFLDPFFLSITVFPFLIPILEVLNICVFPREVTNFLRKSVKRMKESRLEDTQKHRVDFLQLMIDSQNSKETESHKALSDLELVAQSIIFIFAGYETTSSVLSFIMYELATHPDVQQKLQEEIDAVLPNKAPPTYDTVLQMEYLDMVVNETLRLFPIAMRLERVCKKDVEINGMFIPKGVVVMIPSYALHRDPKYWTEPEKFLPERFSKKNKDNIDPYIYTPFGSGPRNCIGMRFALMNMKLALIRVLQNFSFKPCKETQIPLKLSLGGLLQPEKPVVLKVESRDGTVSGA

With `COC1C=CO[C@@]2(C)Oc3c(C)c(O)c4c(O)c(c5c(nc6cc(C)ccn65)c4c3C2=O)NC(=O)/C(C)=C\C=CC(C)C(O)[C@@H](C)C(O)C(C)[C@@H](OC(C)=O)C1C` (stereo partly drawn) the AC50 (Cytochrome P450 3A4) was 7.94 µM (inconclusive).
For `CCN(CC)CCCC(C)n1c(-c2ccccc2)nc2c(N3CCOCC3)nc(C)nc21` (stereo not drawn), the AC50 (Cytochrome P450 3A4) was 15.8 µM (inconclusive).
In the case of `COC(=O)c1c(C)[nH]c(C(=O)OCc2ccc(F)cc2)c1C`, the EC50 [1] is reported as 0.115 µM (active), the EC50 (H4) is reported as 9.55 µM (active) and the EC50 [2] is reported as 23.8 µM (active).
For `O=C(Cc1ccccc1F)Nc1ccc(SC(F)F)cc1`, the IC50 [3] was 13.7 µM (active), the IC50 [4] was > 100 µM (inactive) and the IC50 [5] was > 100 µM (inactive). For the same compound, the IC50 (Caspase-3) was 41.8 µM (active).
For `O=C(/C=C/c1cccs1)c1ccc(N2CCOCC2)cc1`, the IC50 [3] was 2.77 µM (active), the IC50 (Protein skinhead-1) was > 100 µM (inactive) and the IC50 [4] was 5.04 µM (active). The IC50 [5] was 5.47 µM (active) and the IC50 (Caspase-3) was 6.94 µM (active).
For `O=C(Nc1ccc(NC(=O)c2cccs2)c(Cl)c1)c1cccs1`, the IC50 [3] was 6.62 µM (active), the IC50 [4] was 27.6 µM (active) and the IC50 [5] was 24.3 µM (active). The IC50 (Caspase-3) was 17.4 µM (active).
In the case of `Cc1cc(NC(=O)COC(=O)c2ccc(S(=O)(=O)N3CCCc4ccccc43)cc2)no1`, the IC50 [6] is reported as > 80 µM (inactive).
With `O/C(=C\c1nc2ccccc2[nH]1)c1cccs1` the IC50 [3] was 7.98 µM (active), the IC50 [4] was 13.1 µM (active) and the IC50 [5] was 8.18 µM (active). For the same compound, the IC50 (Caspase-3) was 9.98 µM (active).
In the case of `COc1ccc(NS(=O)(=O)c2cc(NC(=O)CNC(=O)c3cccc(OC)c3)ccc2C)cc1`, the AC50 [7] is reported as 11 µM (active).
With `Cc1nc(Sc2nnnn2C)c2c3c(sc2n1)CCC3` the AC50 [7] was 4.98 µM (active) and the IC50 [6] was > 80 µM (inactive).
For `COC(=O)c1cccc(C23CC4(C2)[C@H](CN(Cc2ccc(C(F)(F)F)cc2)[C@@H]4c2ccccc2)C3c2ccc(Cl)nc2)c1` (stereo partly drawn), the AC50 (Cytochrome P450 3A4) was 3.98 µM (inconclusive).
With `CCCn1c(-c2ccc(F)cc2)nc2c(NCCN(C(C)C)C(C)C)nc(C)nc21` the AC50 (Cytochrome P450 3A4) was 10 µM (inconclusive).
With `O=C(NCC1CCCO1)c1cc(-c2ccccc2)on1` (stereo not drawn) the EC50 (cells [8]) was > 350 µM (not active), the EC50 [1] was 11.6 µM (active) and the EC50 (cells [9]) was 17.2 µM (active). For the same compound, the EC50 (H4) was > 120 µM (not active) and the EC50 [2] was 35.5 µM (active).
For `CC(=O)c1sc(N/N=C\c2ccccc2O)nc1C`, the IC50 [3] was 3.4 µM (active), the IC50 [4] was 16.3 µM (active) and the IC50 [5] was 10.3 µM (active). For the same compound, the IC50 (Caspase-3) was 11 µM (active).
For `Cc1scc(C(=O)N/N=C/c2ccc([N+](=O)[O-])o2)c1C`, the EC50 [10] was 1.48 µM (active), the EC50 [11] was > 150 µM (inactive) and the AC50 [7] was 2.19 µM (active).
With `C#CCCCCCCCCCCCC(O)CC(O)COC(C)=O` (stereo not drawn) [AVOCADYNE ACETATE] the AC50 (Cytochrome P450 3A4) was 39.8 µM (inconclusive).
For `S=c1ccss1` [DITHIOLETHIONE], the AC50 (Cytochrome P450 3A4) was 10 µM (inconclusive).
In the case of `N#Cc1nn(-c2c(Cl)cc(C(F)(F)F)cc2Cl)c(N)c1[S+]([O-])C(F)(F)F` (stereo not drawn) [FIPRONIL], the AC50 (Cytochrome P450 3A4) is reported as 25.1 µM (inconclusive).
